Nine compounds from patent publication US5808144A, “Benzene derivatives” (Teijin Limited, priority 1995, dated 1998) can be followed below.

The subject of one test is human IgG antibody. Description: Human IgG antibody production-inhibiting activity in vitro (lymphocytes + IL-4 + anti-CD40 Ab + IL-10, sandwich ELISA). The class given is cell-based. Particulars: Lymphocyte; for inhibition at 0.1 µM: 100 nM (0.1 μM), vs. no compound; for IC50: IgG antibody production. The procedure:
(§1) Measurement of human IgE antibody production-inhibiting activity in vitro
(§2) In accordance with the following method established with reference to The Journal of Immunology (J. Immunol.), Vol. 146, 1836 to 1842 (1991) and the Journal of Immunology (J. Immunol.), Vol. 147, 8 to 13 (1991), the concentrations of IgE and […], when the compounds of the present invention shown in Table 12 were employed, were measured.
(§3) Peripheral venous blood gathered from a healthy person was subjected to a density-gradient centrifugation to isolate lymphocytes therefrom. The isolated lymphocytes were washed and suspended in a culture medium liquid (RPMI-1640 (made by Gibco Co.)+10% heat-inactivated FCS (made of Whittaker Co.)+100 μg/ml streptomycin+100 U/ml penicillin G+2 mM L-glutamine). The lymphocytes in the suspension were cultured for one week in the presence or non-presence of the above-mentioned compounds and in the presence of an interleukin 4 (IL-4, made by GENZYME CO.) (0.1 mg/ml), an anti-CD 40 antibodies (anti CD 40 Ab, made by BIOSOURCE CO., clone B-B20) (0.2 mg/ml), and an interleukin 10 (IL-10, made by GENZYME CO.) (0.2 mg/ml). To this culture system, the same culture medium liquid as mentioned above was supplemented, and then the culture was further carried out for one week. Thereafter, the concentrations of IgE antibodies and IgG antibodies in the supernatant of the culture mixture were measured by a sandwich ELISA method. In the measurement by the ELISA method, the concentration of the IgE antibodies was determined by using a primary antibody consisting of a rabbit anti-human IgE (ε) antibody (made by IGN Co.) and a secondary antibody consisting of biotin-anti-human IgE monoclonal antibody (G7-26, made by Phar Mingen Co.), and the concentration of IgG antibodies was determined by using a primary antibody consisting of anti-human IgG monoclonal antibody (G18-145, made by Phar Mingen Co.) and a secondary antibody consisting of biotin-donkey anti-human IgG antibody (H+L), made by Jackson Co.). Also, in the measurement of IgE and IgG antibody concentrations, as an enzyme, an Avidin-Biotin-HRP (Avidin-Biotin-Horse Radish Peroxidase; ABC kit, made by Vector Lab.) was used and as a substrate, TMB (3,3', 5,5'-tetramethylbenzidine) Microwell Peroxidase Substrate System (made by Kirkegaad & Perry Laboratories Inc.) was used.
(§4) On the basis of each antibody concentration when the compound of the present invention was not present, each antibody production-inhibition (%) in a concentration of the compound to be tested of 0.1 μM was calculated. Further, with respect to some of the compounds tested, the antibody production-inhibitions (%) of the tested compounds were measured in various concentrations thereof, and IC 50 values thereof were calculated. (Refer to Uejima et al., American Academy of Allergy & Immunology, Proceeding of 1995 Annual Meeting, Program No. 818).
A general note: An ELISA detects its analyte on a solid surface through an enzyme-linked reagent.

For another test, the system named is human IgE antibody. Description: Human IgE antibody production-inhibiting activity in vitro (lymphocytes + IL-4 + anti-CD40 Ab + IL-10, sandwich ELISA). Particulars: Lymphocyte; for inhibition at 0.1 µM: 100 nM (0.1 μM), vs. no compound; for IC50: IgE antibody production. The format is cell-based. The procedure: as §1, §2, §3, §4
A further test has as its system anti-TNP IgG. The test is described as follows: TNP-sensitive mice: serum anti-TNP IgG (ELISA). The format is in vivo, mouse. Particulars: serum day 11, vehicle 4390 ± 2630. The procedure:
(§5) Measurement of IgE antibody production-inhibiting performance on TNP-sensitive mice
(§6) TNP-KLH (2 μg/head) and Alum (1 mg/head) were dosed into the abdominal cavities of 8-week-old male mice to sensitize the mice.
(§7) Compound No. 14 was suspended in a concentration of 1.0 mg/ml, 3.0 mg/ml or […] in an aqueous 5% gum arabi solution, and each suspension was perorally dosed to three groups of mice for medication, to which each medicine was dosed at a dosage of 10 ml/kg, (namely, 10 mg/kg, 30 mg/kg or 100 mg/kg), once a day continuously for 10 days from the sensitized day. For a vehicle mouse group, the above-mentioned aqueous gum arali solution was dosed in the same amount as mentioned above in the same manner as mentioned above.
(§8) On the day after the final dosing day (the eleventh day), blood was extracted from the heart of the mouse, and a TNP specific antibody value of a blood serum obtained from the extracted blood was measured in accordance with ELISA method.

Another test deals with anti-TNP IgM. Description: TNP-sensitive mice: serum anti-TNP IgM (ELISA). The class given is in vivo, mouse. Particulars: serum day 11, vehicle 110 ± 9. The procedure:
as §5, §6, §7, §8

The test system of the next test is anti-TNP IgE. Description: IgE antibody production-inhibiting performance on TNP-sensitive mice: serum anti-TNP IgE (ELISA). The class given is in vivo, mouse. Particulars: serum day 11, vehicle 433 ± 118. The procedure: as §5, §6, §7, §8
Where [1] appears, read: 10 mg/kg p.o. once a day for 10 days.
The mark [2] stands for this setting: 30 mg/kg p.o. once a day for 10 days.
Setting [3] is: 100 mg/kg p.o. once a day for 10 days, ** p < 0.01 vs. vehicle.

Usually inhibition stands for the change of the read-out against control, counted positive when it falls. What is called IC50 is the point on the concentration scale where inhibition reaches its midpoint.

On to `O=C(Nc1ccccc1C(=O)O)c1ccc(Oc2ccc(O)cc2)cc1` [compound 30, 2-(4-(4-hydroxyphenoxy)benzamido)benzoic acid], for which the inhibition at 0.1 µM in the test on human IgG antibody was -31.7%; with human IgE antibody it was 25.7%.

With `CC(C)Oc1ccc(Oc2ccc(CC(=O)Nc3ccccc3C(=O)O)cc2)cc1` [compound 18, 2-(4-(4-isopropyloxyphenoxy)phenylacetamido)benzoic acid], the inhibition at 0.1 µM with human IgG antibody is -1.7%; in the test on human IgE antibody, 19.5%.

As to `O=C(Cc1ccc(Oc2ccc(OC3CCCCC3)cc2)cc1)Nc1ccccc1C(=O)O` [Compound No. 8, 2-(4-(4-cyclohexyloxyphenoxy)phenylacetamido)benzoic acid], in the test on human IgG antibody, the inhibition at 0.1 µM is 40.6% and the IC50 was found to be 50 nM. In addition, in the test on human IgE antibody, the inhibition at 0.1 µM came to 95.5% and the IC50 is 17 nM.

With `O=C(Cc1ccc(Oc2ccc(OC3CCCCCCCCCCC3)cc2)cc1)Nc1ccccc1C(=O)O` [compound 16, 2-(4-(4-cyclododecanyloxyphenoxy)phenylacetamido)benzoic acid], the inhibition at 0.1 µM in the test on human IgG antibody worked out at 95.8%; in the test on human IgE antibody it was 100%. The IC50 in the test on human IgG antibody was found to be 46 nM; with human IgE antibody, 22 nM.

On to `O=C(Cc1ccc(Oc2ccc(OC3CCCC3)cc2)cc1)Nc1ccccc1C(=O)O` [compound 12, 2-(4-(4-cyclopentyloxyphenoxy)phenylacetamido)benzoic acid], for which the inhibition at 0.1 µM with human IgG antibody is 95.8%; in the test with human IgE antibody it was 100%. Besides, the concentration for half-maximal inhibition (IC50) was > 100 nM in the test with human IgG antibody and 44 nM in the test with human IgE antibody.

On to `O=C(Cc1ccc(Oc2ccc(OC3CCCCCCC3)cc2)cc1)Nc1ccccc1C(=O)O` [Compound No. 14, 2-(4-(4-cyclooctyloxyphenoxy)phenylacetamido)benzoic acid], for which the “anti-TNP IgG” value came to 2980 ± 2310 ng/mL with anti-TNP IgG (setting [1]), 2500 ± 1700 ng/mL with anti-TNP IgG (setting [2]) and 16 ± 18 ng/mL in the test on anti-TNP IgG (setting [3]). For the same compound, the “anti-TNP IgM” value in the test with anti-TNP IgM (setting [1]) worked out at 79 ± 40 µg/mL; in the test on anti-TNP IgM (setting [3]) it was 20 ± 5.0 µg/mL. The “anti-TNP IgM (μg/ml)” value in the test on anti-TNP IgM (setting [2]) is given as 73 ± +26 μg/ml. The inhibition at 0.1 µM is 93.8% in the test on human IgG antibody and 100% in the test on human IgE antibody. The IC50 in the test with human IgG antibody came out at 12 nM; with human IgE antibody, 6 nM. The “anti-TNP IgE” value with anti-TNP IgE (setting [1]) was found to be 127 ± 72 ng/mL; in the test on anti-TNP IgE (30 mg/kg p.o. once a day for 10 days, ** p < 0.01 vs. vehicle) it was 52 ± 30 ng/mL; in the test on anti-TNP IgE (setting [3]) it was 0.2 ± 0.4 ng/mL.

Take `O=C(Cc1ccc(Oc2ccc(OCc3ccccc3)cc2)cc1)Nc1ccccc1C(=O)O` [Compound No. 4, 2-(4-(4-benzyloxyphenoxy)phenylacetamido)benzoic acid]: in the test on human IgG antibody, the inhibition at 0.1 µM stood at 100% and the IC50 turned out to be 200 nM. For the same compound, in the test with human IgE antibody, the inhibition at 0.1 µM stood at 100% and the 50% inhibitory concentration (IC50) is 28 nM.

In the case of `CCC(CC)Oc1ccc(Oc2ccc(CC(=O)Nc3ccccc3C(=O)O)cc2)cc1` [compound 20, 2-(4-(4-(3-pentyloxy)phenoxy)phenylacetamido)benzoic acid], in the test with human IgG antibody, the inhibition at 0.1 µM amounted to 52.6% and the IC50 was > 100 nM. Also, in the test with human IgE antibody, the inhibition at 0.1 µM worked out at 100% and the IC50 amounted to 35 nM.

Turning to `O=C(Nc1ccccc1C(=O)O)c1ccc(Oc2ccc(OC3CCCCCCC3)cc2)cc1` [compound 22, 2-(4-(4-cyclooctyloxyphenoxy)benzamido)benzoic acid], the inhibition at 0.1 µM with human IgG antibody was -33.2%; in the test with human IgE antibody, 51%.
